Measured values reported in patent US20240408169A1 (priority 2023, published 2024).
*1 amine or outer side, *2 acyl side, *3 side chain or, on linkers, in order; H or OH if unused. Where a SMILES comes first, the peptide text is derived from it. Bridges are numbered along the chain shown (N, C = ends). [ ]: non-standard residue; d: D form. The star is where a group is joined. X32 = CN([C@@H](Cc1cc(Cl)ccc1-c1ccc(N2CCOCC2=O)cc1)C(=O)[*:2])[*:1]; X79 = CC(C)n1cc(-c2ccc(Cl)cc2C[C@@H](C(=O)[*:2])N(C)[*:1])cn1; X19 = CN([C@@H](Cc1cc(Cl)ccc1-c1ccn2ccnc2c1)C(=O)[*:2])[*:1]; X26 = CN([C@@H](Cc1cc(F)ccc1-c1cnn(C2CC2)c1)C(=O)[*:2])[*:1]; NMehhhLys(Me) = CN([C@@H](CCCCCCCN(C)[*:3])C(=O)[*:2])[*:1]; X29 = CN([C@@H](Cc1cc(Cl)ccc1-c1cn[nH]c1)C(=O)[*:2])[*:1]; X64 = CN([C@@H](Cc1cc(Cl)ccc1OC1(C)CC1)C(=O)[*:2])[*:1]; X96 = CN([C@@H](Cc1cc(Cl)cc2ccn(C)c12)C(=O)[*:2])[*:1]; NMe3Pal(2-OMe,5-Cl) = CN[C@@H](Cc1cc(Cl)cnc1OC)C(=O)O; Oxane2carbonyl(2R-CF3) = O=C([C@@]1(C(F)(F)F)CCCCO1)*; X41 = CN([C@@H](Cc1cc(Cl)cc2c1ccn2C)C(=O)[*:2])[*:1]; Cyclobutanecarbonyl(1-CF3) = O=C(C1(C(F)(F)F)CCC1)*; cBuCO(3,3-F2-1-CF3) = O=C(C1(C(F)(F)F)CC(F)(F)C1)*; Pro(trans-4-F) = O=C(O)[C@@H]1C[C@@H](F)CN1; Gly(cPr) = N[C@H](C(=O)O)C1CC1

Columns and labels:
CyclinA2/CDK2 = target: T1, CyclinA2/CDK2 (Homo sapiens, UniProt P20248); assay: Fluorescence Polarization (FP) competitive binding assay, Cyclin A2/Cdk2; conditions: 8 nM Cyclin A2/Cdk2, 2 nM FAM probe; average of 2-3 independent experiments; read-out: Cyclin A FP IC50;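 also: plates equilibrated two hours at room temperature before polarization reading, IC50 fitted from eight-concentration compound titration curves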
T1 construct: purchased CRELUX Protein Services

CyclinB1/CDK1 = target: T2, CyclinB1/CDK1 (Homo sapiens, UniProt P14635); assay: Fluorescence Polarization (FP) competitive binding assay, Cyclin B1/Cdk1; conditions: 10 nM Cyclin B1/Cdk1, 2 nM FAM probe; average of 2-3 independent experiments; read-out: Cyclin B FP IC50;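 also: fluorescence polarization read after equilibration at room temperature, with IC50 taken from serially diluted dose-response curves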
T2 construct: purchased Eurofins, discovery 14-450

CyclinE1/CDK2 = target: T3, CyclinE1/CDK2 (Homo sapiens, UniProt P24864); assay: Fluorescence Polarization (FP) competitive binding assay, Cyclin E1/Cdk2; conditions: 10 nM Cyclin E1/Cdk2, 2 nM FAM probe; average of 2-3 independent experiments; read-out: Cyclin E FP IC50;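 also: readings taken after two-hour equilibration at room temperature in HEPES buffer with NaCl, DTT, NP-40 and BSA, IC50 fitted from eight-concentration serial dilution series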
T3 construct: purchased Eurofins, discovery 14-475

WI-38 cells = assay: MTT proliferation assay, WI-38; type: cell-based; conditions: 3 days compound exposure, 1:3 serial dilution starting at 10 μM;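 also: Eight- or ten-point dilution series, with exposure length chosen to span about three to four cell doublings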
NCI-H1048 cells = assay: MTT proliferation assay, NCI-H1048; type: cell-based; conditions: 5 days compound exposure, 1:3 serial dilution starting at 10 μM;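 also: Dose-response in 96-well plates over 8 or 10 concentration points, with exposure spanning 3-4 cell doublings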
OVCAR3 cells = assay: MTT proliferation assay, OVCAR3; type: cell-based; conditions: 5 days compound exposure, 1:3 serial dilution starting at 10 μM;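 also: compound given as an 8- or 10-point series, one day after plating, with exposure covering roughly 3-4 cell doublings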

| Structure (SMILES) | IC50 (CyclinA2/CDK2) [nM] | IC50 (CyclinB1/CDK1) [nM] | IC50 (CyclinE1/CDK2) [nM] | GI50 (WI-38 cells) [nM] | GI50 (NCI-H1048 cells) [nM] | GI50 (OVCAR3 cells) [nM] |
| --- | --- | --- | --- | --- | --- | --- |
| CC(C)C[C@@H]1NC(=O)[C@@H](N(C)C(=O)[C@@H](NC(=O)[C@@H]2C[C@@H](F)CN2C(=O)C2(C(F)(F)F)CC(F)(F)C2)C2CC2)CCCCCCCN(C)C(=O)[C@H](Cc2cc(Cl)ccc2-c2cn[nH]c2)N(C)C1=O [Example 167] ({cBuCO(3,3-F2-1-CF3)}-[Pro(trans-4-F)][Gly(cPr)][NMehhhLys(Me)]L[X29]; lactam 3-C) | 20 | 20 | 280 | 19700 | 10 | 10 |
| CC(C)C[C@@H]1NC(=O)[C@@H](N(C)C(=O)[C@@H](NC(=O)[C@@H]2C[C@@H](F)CN2C(=O)C2(C(F)(F)F)CCC2)C2CC2)C/C=C\CCCCN(C)C(=O)[C@H](Cc2cc(Cl)ccc2-c2cnn(C3CC3)c2)N(C)C1=O [Example 176] | 20 | 20 | 100 | 5480 | 10 | 10 |
| CC(C)C[C@@H]1NC(=O)[C@@H](N(C)C(=O)[C@@H](NC(=O)[C@@H]2C[C@@H](F)CN2C(=O)[C@@]2(C(F)(F)F)CCCCO2)C2CC2)CCCCCCCN(C)C(=O)[C@H](Cc2cc(Cl)ccc2OC2(C)CC2)N(C)C1=O [Example 260] ({Oxane2carbonyl(2R-CF3)}-[Pro(trans-4-F)][Gly(cPr)][NMehhhLys(Me)]L[X64]; lactam 3-C) | 50 | 20 | 100 | 6390 | 40 | 40 |
| CC(C)C[C@@H]1NC(=O)[C@@H](N(C)C(=O)[C@@H](NC(=O)[C@@H]2C[C@@H](F)CN2C(=O)C2(C(F)(F)F)CCC2)C2CC2)CC=CCCCCN(C)C(=O)[C@H](Cc2cc(Cl)cnc2OC(C)C)N(C)C1=O [Example 137] | 60 | 20 | 130 | 4580 | 600 | 760 |
| CC(C)C[C@@H]1NC(=O)[C@@H](N(C)C(=O)[C@@H](NC(=O)[C@@H]2C[C@@H](F)CN2C(=O)C2(C(F)(F)F)CC(F)(F)C2)C2CC2)CC=CCCCCNC(=O)[C@H](Cc2cc(Cl)ccc2C2=CCN(C(=O)C(C)C)CC2)N(C)C1=O [Example 90] | 90 | 20 | 3700 | 4130 | 260 | 230 |
| CC(C)C[C@@H]1NC(=O)[C@@H](N(C)C(=O)[C@@H](NC(=O)[C@@H]2C[C@@H](F)CN2C(=O)C2(C(F)(F)F)CC(F)(F)C2)C2CC2)CC=CCCCCNC(=O)[C@H](Cc2cc(Cl)ccc2-c2cnn(C3CC3)c2)N(C)C1=O [Example 189] | 50 | 20 | 850 | 3670 | 130 | 80 |
| CC(C)C[C@@H]1NC(=O)[C@@H](N(C)C(=O)[C@@H](NC(=O)[C@@H]2C[C@@H](F)CN2C(=O)C2(C(F)(F)F)CC(F)(F)C2)C2CC2)CCCCCCCN(C)C(=O)[C@H](Cc2cc(Cl)ccc2-c2ccc(N3CCOCC3=O)cc2)N(C)C1=O [Example 408] ({cBuCO(3,3-F2-1-CF3)}-[Pro(trans-4-F)][Gly(cPr)][NMehhhLys(Me)]L[X32]; lactam 3-C) | 20 | 20 | 510 | 5530 | 10 | 10 |
| COc1ncc(Cl)cc1C[C@H]1C(=O)N(C)CCCCCCC[C@H](N(C)C(=O)[C@@H](NC(=O)[C@@H]2C[C@@H](F)CN2C(=O)C2(C(F)(F)F)CCC2)C2CC2)C(=O)N[C@@H](CC(C)C)C(=O)N1C [Example 224] ({Cyclobutanecarbonyl(1-CF3)}-[Pro(trans-4-F)][Gly(cPr)][NMehhhLys(Me)]L[NMe3Pal(2-OMe,5-Cl)]; lactam 3-C) | 30 | 20 | 100 | 12400 | 10 | 10 |
| CC(C)C[C@@H]1NC(=O)[C@@H](N(C)C(=O)[C@@H](NC(=O)[C@@H]2C[C@@H](F)CN2C(=O)C2(C(F)(F)F)CCC2)C2CC2)CCCCCCCN(C)C(=O)[C@H](Cc2cc(F)ccc2-c2cnn(C3CC3)c2)N(C)C1=O [Example 186] ({Cyclobutanecarbonyl(1-CF3)}-[Pro(trans-4-F)][Gly(cPr)][NMehhhLys(Me)]L[X26]; lactam 3-C) | 20 | 20 | 100 | 8680 | 10 | 10 |
| CC(C)C[C@@H]1NC(=O)[C@@H](N(C)C(=O)[C@@H](NC(=O)[C@@H]2C[C@@H](F)CN2C(=O)C2(C(F)(F)F)CC(F)(F)C2)C2CC2)CCCCCCCN(C)C(=O)[C@H](Cc2cc(Cl)ccc2-c2cnn(C(C)C)c2)N(C)C1=O [Example 111] ({cBuCO(3,3-F2-1-CF3)}-[Pro(trans-4-F)][Gly(cPr)][NMehhhLys(Me)]L[X79]; lactam 3-C) | 20 | 20 | 280 | 8130 | 10 | 10 |
| CC(C)C[C@@H]1NC(=O)[C@@H](N(C)C(=O)[C@@H](NC(=O)[C@@H]2C[C@@H](F)CN2C(=O)C2(C(F)(F)F)CC(F)(F)C2)C2CC2)CCCCCCCN(C)C(=O)[C@H](Cc2cc(Cl)cc3ccn(C)c23)N(C)C1=O [Example 392, (2S,4R)—N—((S)-2-(((3S,6S,9S)-3-((5-chloro-1-methyl-1H-indol-7-yl)methyl)-6-isobutyl-1,4-dimethyl-2,5,8-trioxo-1,4,7-triazacyclohexadecan-9-yl)(methyl)amino)-1-cyclopropyl-2-oxoethyl)-1-(3,3-difluoro-1-(trifluoromethyl)cyclobutane-1-carbonyl)-4-fluoropyrrolidine-2-carboxamide] ({cBuCO(3,3-F2-1-CF3)}-[Pro(trans-4-F)][Gly(cPr)][NMehhhLys(Me)]L[X96]; lactam 3-C) | 230 | 20 | 830 | 14700 | 170 | 170 |
| CC(C)C[C@@H]1NC(=O)[C@@H](N(C)C(=O)[C@@H](NC(=O)[C@@H]2C[C@@H](F)CN2C(=O)C2(C(F)(F)F)CC(F)(F)C2)C2CC2)CC=CCCCCNC(=O)[C@H](Cc2cc(Cl)ccc2C2=CCN(C(=O)C3CC3)CC2)N(C)C1=O [Example 89] | 120 | 20 | 5410 | 4340 | 310 | 380 |
| CC(C)C[C@@H]1NC(=O)[C@@H](N(C)C(=O)[C@@H](NC(=O)[C@@H]2C[C@@H](F)CN2C(=O)C2(C(F)(F)F)CC(F)(F)C2)C2CC2)CCCCCCCN(C)C(=O)[C@H](Cc2cc(Cl)ccc2-c2ccn3ccnc3c2)N(C)C1=O [Example 236] ({cBuCO(3,3-F2-1-CF3)}-[Pro(trans-4-F)][Gly(cPr)][NMehhhLys(Me)]L[X19]; lactam 3-C) | 30 | 20 | 780 | 7330 | 10 | 20 |
| CC(C)C[C@@H]1NC(=O)[C@@H](N(C)C(=O)[C@@H](NC(=O)[C@@H]2C[C@@H](F)CN2C(=O)C2(C(F)(F)F)CC(F)(F)C2)C2CC2)CCCCCCCN(C)C(=O)[C@H](Cc2cc(Cl)cc3c2ccn3C)N(C)C1=O [Example 393] ({cBuCO(3,3-F2-1-CF3)}-[Pro(trans-4-F)][Gly(cPr)][NMehhhLys(Me)]L[X41]; lactam 3-C) | 6670 | 47 | 1690 | 13700 | 1790 | 1310 |
